The values that follow come from patent US20220017495A1, “CONJUGATES OF BIVALENT EVANS BLUE DYE DERIVATIVES AND METHODS OF USE” (THE UNITED STATES OF AMERICA, AS REPRESENTED BY THE …, priority 2019, published 2022).

Structures can show the parent of a compound that is named as a salt.

The nature of data set [1]: Optical properties: absorption, emission, quantum yield and quantum efficiency. The format is physicochemical. More on the design: ϵ600nm / ϵpeak: unit not given here. As to conditions: for Molar ϵ600nm / Molar ϵpeak: in M-1cm-1 (unit assumed); for Absorption peak / Emission peak: in BSA; for QE: QE=ε*QY; for QY600nm: relative, NtEB set as 1; for Extinction coefficient: as given in text (peak, BSA). As for the experimental part: The absorption and the emission spectra of N(tEB)2, NtEB and EB were measured in PBS, BSA and FBS buffers. […] The similar emission peaks of the three EB derivatives in BSA were recorded at 661, 652 and 660 nm, respectively.
Fluorescence brightness of each compound was further compared with equal molar amount of N(tEB)2, NtEB, or EB in the presence or absence of human serum albumin.
Quantum efficiency is a dye metric encompassing both the quantum yield and absorption coefficient (QE=ε*QY).

In data set [2] the test system is U-87MG, UM-22B and INS-1 tumor mouse xenografts. Briefly: PET tumor uptake and ex vivo biodistribution in tumor xenografts. More on the design: species or system nude mice. To be noted: for Tumor retention compared with IgG: U-87MG xenografts. The text has this: For each scan, regions of interest (ROIs) were drawn using vendor software (ASI Pro 5.2.4.0; Siemens Medical Solutions) on decay-corrected whole-body coronal images. […] These values were then divided by the administered activity to obtain (assuming a tissue density of 1 g/mL) an image-ROI-derived percentage injected dose per gram (% ID/g).
PET images were reconstructed without correction for attenuation or scattering using a three-dimensional ordered subsets expectation maximization algorithm.

Data set [3] deals with T1, human serum albumin (HSA) (Homo sapiens, UniProt P02768). Briefly: Biolayer interferometry (BLI) binding to biotinylated HSA. As for the experimental part:
In this study, we used the streptavidin conjugated biosensors (Pall Fort6Bio LLC, CA). We preincubated the biosensors with biotinylated HSA (Abeam Inc., Cambridge, Mass.) for 10 minutes. After removing the unbound biotinylated HSA, the biosensors were washed for 1 minute. After blocking the spare biosensor, we added EZ-Link™ Sulfo-NHS-Biotin (Thermo Fisher Scientific, Rockford, Ill.) to each well and then removed it and washed the wells.
Association of a given dilution of a compound with the albumin-derivatized biosensor was measured for 600 seconds and then in turn, dissociation of the compound from the albumin measured for another 600 seconds. Data was analyzed using the OCTET Data Analysis software 7.0.

Data set [4] has as its target T1, human serum albumin (HSA). Briefly: Atomic force microscopy of complexes with HSA. More on the design: purchased Abeam Inc., Cambridge, Mass; (so in the source). To be noted: molar ratio 1:10, 1:1 and 10:1 with HSA. As for the experimental part:
We performed atomic force microscopy (AFM) to study the morphological structures of the complex. […] Samples ([…]) were cast on freshly peeled mica substrate, followed by drying, rinsing, and dehumidifying. AFM was carried out in tapping mode in air on a PicoForce Multimode AFM (Bruker, CA) equipped with a NANOSCOPE V controller, a type E scanner head, and a sharpened TESP-SS (Bruker, CA) AFM cantilever. An inverted optical microscope (IX71, Olympus, Japan) was used to capture pictures. AFM images were then analyzed by NANOSCOPE Software (version 7.3-8.15, Bruker, CA). For quantification, 10 different fields of view in one image were selected to quantify the “dimer” and the “monomer”. The size and morphology of dimer and monomer was defined by ImageJ (NIH, MD), a public domain Java image processing program.

A further data set relates to blood glucose. Briefly: Blood glucose monitoring in T2DM mice. It is filed as in vivo, db/db mice.

T1 sequence (P02768 25-609): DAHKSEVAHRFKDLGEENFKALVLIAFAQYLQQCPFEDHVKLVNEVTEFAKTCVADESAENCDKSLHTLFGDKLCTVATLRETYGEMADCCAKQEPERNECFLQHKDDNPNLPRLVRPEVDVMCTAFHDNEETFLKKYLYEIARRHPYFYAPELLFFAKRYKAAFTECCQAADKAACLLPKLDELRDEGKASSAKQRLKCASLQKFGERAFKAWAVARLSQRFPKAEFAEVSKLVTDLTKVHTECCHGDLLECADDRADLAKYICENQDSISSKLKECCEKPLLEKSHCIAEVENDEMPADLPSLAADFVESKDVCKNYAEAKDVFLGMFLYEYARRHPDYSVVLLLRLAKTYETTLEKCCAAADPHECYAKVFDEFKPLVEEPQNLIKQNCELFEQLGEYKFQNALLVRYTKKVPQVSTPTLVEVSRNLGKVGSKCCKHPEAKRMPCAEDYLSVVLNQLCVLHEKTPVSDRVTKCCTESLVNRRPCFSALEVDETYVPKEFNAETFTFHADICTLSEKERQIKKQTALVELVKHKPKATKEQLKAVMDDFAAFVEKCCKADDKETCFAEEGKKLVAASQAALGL

In data set [1] (In BSA), `Cc1cc(-c2ccc(N=Nc3ccc4c(S(=O)(=O)O)cc(S(=O)(=O)O)c(N)c4c3O)c(C)c2)ccc1N=Nc1ccc2c(S(=O)(=O)O)cc(S(=O)(=O)O)c(N)c2c1O` [EB, tetrasodium salt of 6,6′-{(3,3′-dimethyl[1,1′-biphenyl]-4,4′-diyl)bis[diazene-2,1-diyl]}bis(4-amino-5-hydroxynaphthalene-1,3-disulfonate)] returned an OD600nm of 0.905, an ODpeak of 0.9551, a ϵ600nm of 88.14 and a ϵpeak of 93.02. For the same compound, in data set [1] (In BSA), the “Molar ϵ600nm” value worked out at 84683.69 and the “Molar ϵpeak” value is 89371.71. In data set [1] (In FBS), this compound came in with an OD600nm of 0.8414, an ODpeak of 0.9057, a ϵ600nm of 81.94 and a ϵpeak of 88.21. In data set [1] (In FBS), the “Molar ϵ600nm” value was determined as 78732.44 and the “Molar ϵpeak” value is given as 84749.19. Besides, in data set [1] (In PBS), the OD600nm came to 0.9906, the ODpeak turned out to be 0.9983, the ϵ600nm was found to be 96.47 and the ϵpeak was found to be 97.22. For the same compound, in data set [1] (In PBS), the “Molar ϵ600nm” value came to 92693.55 and the “Molar ϵpeak” value was found to be 93414.07. In data set [1], this compound displayed an Absorption peak of 548 nm and an Emission peak of 660 nm.

As for `Cc1cc(-c2ccc(NC(=O)CN3CCN(CC(=O)O)CCN(CC(=O)Nc4ccc(-c5ccc(N=Nc6ccc7c(S(=O)(=O)O)cc(S(=O)(=O)O)c(N)c7c6O)c(C)c5)cc4C)CC3)c(C)c2)ccc1N=Nc1ccc2c(S(=O)(=O)O)cc(S(=O)(=O)O)c(N)c2c1O` [N(tEB)2], in data set [2] (24 h p.i.), the “Tumor retention compared with IgG” value is “comparable”. The “Tumor retention compared with IgG” value in data set [2] (48 h p.i.) is given as “significantly higher”. For the same compound, in data set [2] (^64Cu labeled, all tested tumor models, 24 and/or 48 h p.i.), the “Tumor uptake compared with NtEB” value is given as “significantly improved”. Moreover, in data set [1], the “QE improvement over NtEB” value came out at 5 fold, the “Quantum yield enhancement over NtEB” value came out at 2 fold, the Extinction coefficient is 55198 M⁻¹ cm⁻¹ and the Absorption peak is listed as 610 nm. For the same compound, in data set [1], the Emission peak was 661 nm. In data set [1] (In BSA), this compound showed an OD600nm of 0.1245, an ODpeak of 0.183, a ϵ600nm of 27.79 and a ϵpeak of 40.85. In addition, in data set [1] (In BSA), the QE worked out at 78929.01, the “Molar ϵ600nm” value was determined as 37553.09, the “Molar ϵpeak” value was 55198.51 and the QY600nm was 2.10. For the same compound, in data set [1] (In FBS), the OD600nm is given as 0.1561, the ODpeak was found to be 0.1931, the ϵ600nm is listed as 34.84 and the ϵpeak stood at 43.10. Besides, in data set [1] (In FBS), the QE amounted to 98962.49, the “Molar ϵ600nm” value was found to be 47084.63, the “Molar ϵpeak” value is 58244.99 and the QY600nm is 2.10. Moreover, in data set [1] (In PBS), the OD600nm is given as 0.0987, the ODpeak is recorded as 0.1806, the ϵ600nm stood at 22.03 and the ϵpeak came out at 40.31. For the same compound, in data set [1] (In PBS), the “Molar ϵ600nm” value is reported as 29771.00 and the “Molar ϵpeak” value was determined as 54474.60. In data set [3], the “Kd times lower than EB complex with albumin” value was 2 times, the “Kd times lower than NtEB complex with albumin” value amounted to 43 times, the Kon value turned out to be 47100 M⁻¹ s⁻¹ and the koff value was found to be 0.10 s⁻¹. In data set [3] (pH 7.4), this compound returned a Kd of 1.8 µM, a Koff of 0.1009 s⁻¹ and a Kon of 4.7128. Moreover, the “Dimerization of albumin (AFM)” value in data set [4] is “observed at all tested molar ratios”.

Take `Cc1cc(-c2ccc(NC(=O)CN3CCN(CC(=O)O)CCN(CC(=O)O)CC3)c(C)c2)ccc1N=Nc1ccc2c(S(=O)(=O)O)cc(S(=O)(=O)O)c(N)c2c1O` [NtEB]: in data set [1] (In BSA), the OD600nm worked out at 0.0759, the ODpeak worked out at 0.1108, the ϵ600nm was found to be 18.98 and the ϵpeak is reported as 27.70. In data set [1] (In BSA), the QE was 15696.60, the “Molar ϵ600nm” value is reported as 15696.60, the “Molar ϵpeak” value came to 22914.15 and the QY600nm is 1. Further, in data set [1] (In FBS), the OD600nm was 0.0883, the ODpeak amounted to 0.1132, the ϵ600nm was determined as 22.08 and the ϵpeak is 28.30. Besides, in data set [1] (In FBS), the QE is 18261.00, the “Molar ϵ600nm” value came to 18261.00, the “Molar ϵpeak” value is listed as 23410.48 and the QY600nm is 1. In data set [1] (In PBS), this compound returned an OD600nm of 0.0857, an ODpeak of 0.1533, a ϵ600nm of 21.43 and a ϵpeak of 38.33. In data set [1] (In PBS), the “Molar ϵ600nm” value came to 17723.31 and the “Molar ϵpeak” value worked out at 31703.42. In data set [1], this compound gave an Extinction coefficient of 22914 M⁻¹ cm⁻¹, an Absorption peak of 550 nm and an Emission peak of 652 nm. Also, in data set [3] (pH 7.4), the dissociation constant (Kd) is 79 µM, the Koff came out at 0.7947 s⁻¹ and the kon amounted to 13500 M⁻¹ s⁻¹. Besides, in data set [4], the “Dimerization of albumin (AFM)” value is reported as “no apparent albumin dimers”.

For the compound “exendin-4: exendin-4 peptide, a glucagon-like peptide-1 (GLP-1) agonist”, the “Reduction of glucose level” value in the data set with blood glucose (1 h p.i., normalized to baseline plasma glucose) is “approximately 50%”. In addition, the “Glucose level at recovery” value in the data set on blood glucose (at 12 h) turned out to be 389.67 ± 44.3 mg/dL. In the data set on blood glucose (single subcutaneous injection), the “Effective time window (from 50% reduction of glucose level to rebound to the original level)” value is given as 10.3 h and the Glucose recovery time amounted to 12 h.
